# Read-outs that look alike come from different tables or passages of the source.
# Experiments:
# [1] = tested on: Escherichia Coli (T) O26 B6; test: Experimental infection with Escherichia Coli (T) O26 B6 in mice (21.5 g, culture diluted 1/6); type: in vivo, male mice
# Method: (§1) The product of Example 4 was studied for its activity against an experimental infection of Escherichia Coli in groups of 10 male mice weighing about 21.5 g. The mice recieved an intraperitoneal injection of 0.5 ml of a 24 hour old culture in a nutritive media of Escherichia Coli (T) O26 B6 of the Pasteur Institute diluted 1/6 with distilled water. The test product was administered subcutaneously or orally 1 hour and 5 and 24 hours after the infection and the number of dead was determined after 8 days.
# [2] = tested on: Streptococcus faecalis 5 432; test: MIC, dilution in liquid medium; type: cell-based
# Method in brief: (§2)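 Liquid-medium dilution: equal nutrient broth per tube, graded compound doses, strain inoculated; 24–48 h, 37° C; MIC (g/ml) read by transillumination.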
# [3] = tested on: Staphylococcus aureus ATCC 5 638 Pen-Sensible = UC 1061; test: MIC, dilution in liquid medium; type: cell-based
# Method in brief: as §2
# [4] = tested on: Streptococcus pyogenes A 561; test: MIC, dilution in liquid medium; type: cell-based; settings: for MIC: Streptococcus pyogenes, read-out: M.I.C.
# Method in brief: as §2
# [5] = tested on: Escherichia Coli Sensible Tetracycline ATCC 9 637 = 1020; test: MIC, dilution in liquid medium; type: cell-based; settings: for MIC: Escherichia coli
# Method in brief: as §2
# [6] = tested on: Proteus mirabilis (indol-) A 235; test: MIC, dilution in liquid medium; type: cell-based; settings: Proteus mirabilis, read-out: M.I.C.
# Method in brief: as §2
# [7] = tested on: Escherichia Coli Exp. TO26 B6; test: MIC, dilution in liquid medium; type: cell-based; settings: Escherichia coli
# Method in brief: as §2
# [8] = tested on: Straphylococcus Smith; test: MIC, dilution in liquid medium; type: cell-based
# Method in brief: as §2
# [9] = tested on: Escherichia Coli 25 575; test: MIC, dilution in liquid medium; type: cell-based
# Method in brief: as §2
# [10] = tested on: Providencia Du 48; test: MIC, dilution in liquid medium; type: cell-based; settings: for MIC: Providencia
# Method in brief: as §2
# [11] = tested on: Pseudomonas 3 935 Exp. SG; test: MIC, dilution in liquid medium; type: cell-based; settings: Pseudomonas, 3935EXP.SG
# Method in brief: as §2
# [12] = tested on: Proteus vulgaris (indol+) A 232; test: MIC, dilution in liquid medium; type: cell-based
# Method in brief: as §2
# [13] = tested on: Pseudomonas 8951 RGT; test: MIC, dilution in liquid medium; type: cell-based
# Method in brief: as §2
# [14] = tested on: Escherichia Coli Galle; test: MIC, dilution in liquid medium; type: cell-based
# Method in brief: as §2
# [15] = tested on: Escherichia Coli E6; test: MIC, dilution in liquid medium; type: cell-based
# Method in brief: as §2
# [16] = tested on: Escherichia Coli Resistant Gentamicine, Tobramycine R 55 123 D; test: MIC, dilution in liquid medium; type: cell-based; settings: for MIC: Escherichia coli
# Method in brief: as §2
# [17] = tested on: Staphylococcus aureus UC 1 128 Pen-Resistant; test: MIC, dilution in liquid medium; type: cell-based; settings: Staphylococcus aureus
# Method in brief: as §2
# [18] = tested on: Klebsiella pneumoniae 2 536 Resistant Gentamicine; test: MIC, dilution in liquid medium; type: cell-based; settings: for MIC: Klebsiella pneumoniae
# Method in brief: as §2
# [19] = tested on: Enterobacter cloacae 681; test: MIC, dilution in liquid medium; type: cell-based
# Method in brief: as §2
# [20] = tested on: Escherichia Coli Resistant Tetracycline ATCC 11 303 = UC 1261; test: MIC, dilution in liquid medium; type: cell-based; settings: Escherichia coli, read-out: M.I.C.
# Method in brief: as §2
# [21] = tested on: Serratia Resistant Gentamicine 2 532; test: MIC, dilution in liquid medium; type: cell-based
# Method in brief: as §2
# [22] = tested on: Bacillus subtilis ATCC 6 633; test: MIC, dilution in liquid medium; type: cell-based; settings: for MIC: Bacillus subtilis
# Method in brief: as §2
# [23] = tested on: Streptococcus faecalis 99 F 74; test: MIC, dilution in liquid medium; type: cell-based; settings: Enterococcus faecalis
# Method in brief: as §2
# [24] = tested on: Klebsiella pneumoniae Exp. 52 145; test: MIC, dilution in liquid medium; type: cell-based; settings: Klebsiella pneumoniae, read-out: M.I.C.
# Method in brief: as §2
# [25] = tested on: Staphylococcus aureus exp. n° 54 146; test: MIC, dilution in liquid medium; type: cell-based; settings: Staphylococcus aureus
# Method in brief: as §2
# [26] = tested on: Salmonella typhimurium 420; test: MIC, dilution in liquid medium; type: cell-based; settings: Salmonella enterica, TYPHIMURIUM
# Method in brief: as §2
# [27] = tested on: Escherichia Coli T 96 875; test: MIC, dilution in liquid medium; type: cell-based
# Method in brief: as §2
# [28] = tested on: Escherichia Coli (T) O26 B6; test: Experimental infection with Escherichia Coli (T) O26 B6 in mice, repeated (22.5 g, culture diluted 1/5.5); type: in vivo
# Method: as §1
# The procedure was repeated with mice weighing about 22.5 g with an intraperitoneal injection of a 24 hour old culture of Escherichia Coli (T) O26 B6 diluted 1/5.5 with distilled water with the product of Example 4.
# [29] = tested on: Staphylococcus aureus Co 15 Resistant Cephalexine; test: MIC, dilution in liquid medium; type: cell-based
# Method in brief: as §2
# [30] = Enterococcus faecalis, 5432, 24 h, 24 H
compound,measurement,setting,value
"CO/N=C(\C(=O)N[C@@H]1C(=O)N2C(C(=O)O)=C(COC(C)=O)CS[C@H]12)c1csc(N)n1 [Example 4, 3-acetoxymethyl-7-[2-(2-amino-4-thiazolyl)-2-methoxyiminoacetamido]-ceph-3-eme-4-carboxylic acid]",mice alive after 8 days,[1]; 0.05 mg subcutaneously,10/10
same,deaths after 28.5 h (out of 10 mice),[1]; 0.1 mg orally,1
same,mice alive after 8 days,[1]; 0.1 mg orally,9/10
same,mice alive after 8 days,[1]; 0.1 mg subcutaneously (first line),10/10
same,mice alive after 8 days,[1]; 0.1 mg subcutaneously (second line),10/10
same,mice alive after 8 days,[1]; 0.25 mg orally,10/10
same,mice alive after 8 days,[1]; 0.25 mg subcutaneously,10/10
same,mice alive after 8 days,[1]; 0.5 mg orally,10/10
same,MIC,[2]; [30],2 µg/mL
same,MIC,"[2]; Enterococcus faecalis, 5432, 48 h, 48 H",2 µg/mL
same,MIC,"[3]; 24 h, read-out: M.I.C.",1 µg/mL
same,MIC,"[3]; 48 h, read-out: M.I.C.",1 µg/mL
same,M.I.C.,[4]; 48 H,"0,05 μg/ml"
same,MIC,"[4]; A561, 24 h, 24 H",0.02 µg/mL
same,M.I.C.,[5]; 48 H,"0,2 μg/ml"
same,MIC,"[5]; ATCC9, 24 h, 24 H, read-out: M.I.C.",0.2 µg/mL
same,MIC,[6]; 24 h,0.02 µg/mL
same,MIC,[6]; 48 h,0.02 µg/mL
same,MIC,[7]; 48 h,0.1 µg/mL
same,MIC,[8]; 24 h,1 µg/mL
same,MIC,[8]; 48 h,1 µg/mL
same,MIC,"[9]; COLI25575, 24 h",0.05 µg/mL
same,MIC,"[9]; COLI25575, 48 h",0.05 µg/mL
same,M.I.C.,[10]; 24 H,5 µg/mL
same,M.I.C.,[10]; 48 H,5 µg/mL
same,MIC,"[11]; 24 h, read-out: M.I.C.",10 µg/mL
same,MIC,[11]; 48 h,40 µg/mL
same,M.I.C.,[12]; 24 H,2 µg/mL
same,M.I.C.,[12]; 48 H,40 µg/mL
same,MIC,[13]; 24 h,40 µg/mL
same,MIC,[13]; 48 h,> 40 µg/mL
same,MIC,[14]; 24 h,0.1 µg/mL
same,MIC,[14]; 48 h,0.2 µg/mL
same,MIC,"[15]; COLIE6, 24 h",0.05 µg/mL
same,MIC,"[15]; COLIE6, 48 h",0.05 µg/mL
same,M.I.C.,[16]; 24 H,"0,6 μg/ml"
same,M.I.C.,[16]; 48 H,"0,6-1 μg/ml"
same,MIC,"[17]; UC1, 24 h, 24 H",2 µg/mL
same,MIC,"[17]; UC1, 48 h, 48 H",2 µg/mL
same,M.I.C.,[18]; 24 H,"0,6 μg/ml"
same,M.I.C.,[18]; 48 H,"0,6 μg/ml"
same,MIC,"[19]; Enterobacter cloacae, 681, 24 h",40 µg/mL
same,MIC,"[19]; Enterobacter cloacae, 681, 48 h",40 µg/mL
same,MIC,[20]; 24 h,0.02 µg/mL
same,MIC,[20]; 48 h,0.02 µg/mL
same,MIC,"[21]; 24 h, read-out: M.I.C.",1 µg/mL
same,MIC,"[21]; 48 h, read-out: M.I.C.",1 µg/mL
same,M.I.C.,[22]; 24 H,"0,2 μg/ml"
same,MIC,"[22]; ATCC6, 48 h, 48 H, read-out: M.I.C.",1 µg/mL
same,MIC,"[23]; 99F74, 24 h, 24 H",2 µg/mL
same,MIC,"[23]; 99F74, 48 h, 48 H",3 µg/mL
same,MIC,"[24]; EXP.52145, 24 h, 24 H",0.02 µg/mL
same,MIC,"[24]; EXP.52145, 48 h, 48 H",0.02 µg/mL
same,MIC,"[25]; 24 h, read-out: M.I.C.",3 µg/mL
same,MIC,[25]; 48 h,3 µg/mL
same,MIC,"[26]; 24 h, read-out: M.I.C.",0.2 µg/mL
same,MIC,"[26]; 48 h, read-out: M.I.C.",0.2 µg/mL
same,MIC,"[27]; COLIT96875, 24 h",0.05 µg/mL
same,MIC,"[27]; COLIT96875, 48 h",0.05 µg/mL
same,MORTALITY AFTER 9H 35,"[28]; 0,1 mg OS",1
same,MORTALITY AFTER 24H,"[28]; 0,1 mg OS",1
same,MORTALITY AFTER 32H,"[28]; 0,1 mg OS",2
same,MORTALITY AFTER 70H,"[28]; 0,1 mg OS",1
same,Mice alive on the 8th Day,"[28]; 0,1 mg OS",5/10
same,MORTALITY AFTER 22H 30,"[28]; 0,05 mg OS",4
same,MORTALITY AFTER 24H,"[28]; 0,05 mg OS",1
same,MORTALITY AFTER 31H,"[28]; 0,05 mg OS",1
same,MORTALITY AFTER 32H,"[28]; 0,05 mg OS",2
same,Mice alive on the 8th Day,"[28]; 0,05 mg OS",2/10
same,Mice alive on the 8th Day,"[28]; 0,05 mg S.C.",10/10
same,Mice alive on the 8th Day,"[28]; 0,25 mg OS",10/10
same,MORTALITY AFTER 22H 30,"[28]; 0,015 mg S.C.",2
same,MORTALITY AFTER 23H 50,"[28]; 0,015 mg S.C.",2
same,MORTALITY AFTER 46H 30,"[28]; 0,015 mg S.C.",2
same,Mice alive on the 8th Day,"[28]; 0,015 mg S.C.",4/10
same,MORTALITY AFTER 4j,"[28]; 0,025 mg S.C.",2
same,MORTALITY AFTER 25H 50,"[28]; 0,025 mg S.C.",1
same,MORTALITY AFTER 26H 30,"[28]; 0,025 mg S.C.",1
same,Mice alive on the 8th Day,"[28]; 0,025 mg S.C.",6/10
"C=CCO/N=C(\C(=O)N[C@@H]1C(=O)N2C(C(=O)O)=C(COC(C)=O)CS[C@H]12)c1csc(N)n1 [Example 9, 3-acetoxymethyl-7-[2-(2-amino-4-thiazolyl)-2-(2-propenyl)oxyiminoacetamido]-ceph-3-eme-4-carboxylic acid]",MIC,[2]; [30],2 µg/mL
same,MIC,"[2]; Enterococcus faecalis, 5432, 48 h, read-out: M.I.C.",10 µg/mL
same,MIC,"[29]; 24 h, read-out: M.I.C.",10 µg/mL
same,MIC,[29]; 48 h,20 µg/mL
same,MIC,[3]; 24 h,1 µg/mL
same,MIC,[3]; 48 h,2 µg/mL
same,MIC,"[4]; A561, 24 h, 24 H",0.02 µg/mL
same,MIC,"[4]; A561, 48 h, 48 H",0.02 µg/mL
same,MIC,"[5]; ATCC9, 24 h, 24 H",1 µg/mL
same,MIC,"[5]; ATCC9, 48 h, 48 H",1 µg/mL
same,MIC,[7]; 24 h,1 µg/mL
same,MIC,[7]; 48 h,1 µg/mL
same,MIC,"[10]; DU48, 24 h, 24 H",3 µg/mL
same,MIC,"[10]; DU48, 48 h, 48 H",5 µg/mL
same,MIC,[11]; 24 h,20 µg/mL
same,MIC,[11]; 48 h,20 µg/mL
same,MIC,"[12]; Proteus vulgaris, 24 h",2 µg/mL
same,MIC,[16]; 24 h,1 µg/mL
same,MIC,[16]; 48 h,1 µg/mL
same,MIC,"[17]; UC1, 24 h, 24 H",2 µg/mL
same,MIC,"[17]; UC1, 48 h, 48 H",2 µg/mL
same,MIC,[18]; 24 h,2 µg/mL
same,MIC,[18]; 48 h,5 µg/mL
same,MIC,[20]; 24 h,0.1 µg/mL
same,MIC,[20]; 48 h,0.1 µg/mL
same,MIC,"[21]; 24 h, read-out: M.I.C.",0.4 µg/mL
same,MIC,[21]; 48 h,1 µg/mL
same,MIC,"[22]; ATCC6, 24 h, 24 H",1 µg/mL
same,MIC,"[22]; ATCC6, 48 h, 48 H",1 µg/mL
same,MIC,"[24]; EXP.52145, 24 h, 24 H",0.05 µg/mL
same,MIC,"[24]; EXP.52145, 48 h, 48 H",0.1 µg/mL
same,MIC,[25]; 24 h,2 µg/mL
same,MIC,[25]; 48 h,2 µg/mL
same,MIC,[26]; 24 h,1 µg/mL
same,MIC,"[26]; 48 h, read-out: M.I.C.",10 µg/mL

# Reference: patent publication US4196205A, “3-Acetoxymethyl-7-(iminoacetamido)-cephalosporanic acid derivatives” (priority 1976, dated 1980)
